# Laboratory results as given in patent publication US7491723B2, “Alkanol and cycloalkanol-amine derivatives and methods of their use” (Wyeth, priority 2003, dated 2009).
# Counter-ions that a name gives are not always drawn.
# Target: T1, human hNET (Homo sapiens, UniProt P23975)
# T1 construct: expressed in transfected cells
# Assay: Norepinephrine (NE) uptake assay in MDCK-Net6 cells
# Type: cell-based
# Details: 1 μM test compound, [3H]NE uptake
# Experimental: MDCK-Net6 cells, stably transfected with human hNET (Pacholczyk, T., R. D. Blakely, and S. G. Amara, Nature, 1991, 350(6316): p. 350-4) were cultured in growth medium containing high glucose DMEM (Gibco, Cat. No. 11995), 10% FBS (dialyzed, heat-inactivated, US Bio-Technologies, Lot FBD1129HI) and 500 μg/ml G418 (Gibco, Cat. No. 10131). Cells were plated at 300,000/T75 flask and cells were split twice weekly. The JAR cell line (human placental choriocarcinoma) was purchased from ATCC (Cat. No. HTB-144). The cells were cultured in growth medium containing RPMI 1640 (Gibco, Cat. No. 72400), 10% FBS (Irvine, Cat. No. 3000), 1% sodium pyruvate (Gibco, Cat. No. 1136) and 0.25% glucose. Cells were plated at 250,000 cells/T75 flask and split twice weekly. For all assays, cells were plated in Wallac 96-well sterile plates (PerkinElmer, Cat. No. 3983498).
# On day 1, cells were plated at 3,000 cells/well in growth medium and maintained in a cell incubator (37° C., 5% CO2). On day 2, growth medium was replaced with 200 μl of assay buffer (25 mM HEPES; 120 mM NaCl; 5 mM KCl; 2.5 mM CaCl2; 1.2 mM MgSO4; 2 mg/ml glucose (pH 7.4, 37° C.)) containing 0.2 mg/ml ascorbic acid and 10 μM pargyline. Plates containing cells with 200 μl of assay buffer were equilibrated for 10 minutes at 37° C. prior to addition of compounds. A stock solution of desipramine was prepared in DMSO (10 mM) and delivered to triplicate wells containing cells for a final test concentration of 1 μM. Data from these wells were used to define non-specific NE uptake (minimum NE uptake). Test compounds were prepared in DMSO (10 mM) and diluted in assay buffer according to test range (1 to 10,000 nM). Twenty-five microliters of assay buffer (maximum NE uptake) or test compound were added directly to triplicate wells containing cells in 200 μl of assay buffer. The cells in assay buffer with test compounds were incubated for 20 minutes at 37° C. To initiate the NE uptake, [^3H]NE diluted in assay buffer (120 nM final assay concentration) was delivered in 25 μl aliquots to each well and the plates were incubated for 5 minutes (37° C.). The reaction was terminated by decanting the supernatant from the plate. The plates containing cells were washed twice with 200 μl assay buffer (37° C.) to remove free radioligand. The plates were then inverted, left to dry for 2 minutes, then reinverted and air-dried for an additional 10 minutes. The cells were lysed in 25 μl of 0.25 N NaOH solution (4° C.), placed on a shake table and vigorously shaken for 5 minutes. After cell lysis, 75 μl of scintillation cocktail was added to each well and the plates were sealed with film tape. The plates were returned to the shake table and vigorously shaken for a minimum of 10 minutes to ensure adequate partitioning of organic and aqueous solutions. The plates were counted in a Wallac Microbeta counter (PerkinElmer) to collect the raw cpm data.
# For each experiment, a data stream of cpm values collected from the Wallac Microbeta counter was downloaded to a Microsoft Excel statistical application program. Calculations of EC50 values were made using the transformed-both-sides logistic dose response program written by Wyeth Biometrics Department. The statistical program uses mean cpm values from wells representing maximum binding or uptake (assay buffer) and mean cpm values from wells representing minimum binding or uptake ((1 μM desipramine (hNET) or 1 μM paroxetine (hSERT)). Estimation of the EC50 value was completed on a log scale and the line was fit between the maximum and minimum binding or uptake values. All graphic data representation was generated by normalizing each data point to a mean percent based on the maximum and minimum binding or uptake values. The EC50 values reported from multiple experiments were calculated by pooling the raw data from each experiment and analyzing the pooled data as one experiment.
# T1 sequence (P23975 whole entry): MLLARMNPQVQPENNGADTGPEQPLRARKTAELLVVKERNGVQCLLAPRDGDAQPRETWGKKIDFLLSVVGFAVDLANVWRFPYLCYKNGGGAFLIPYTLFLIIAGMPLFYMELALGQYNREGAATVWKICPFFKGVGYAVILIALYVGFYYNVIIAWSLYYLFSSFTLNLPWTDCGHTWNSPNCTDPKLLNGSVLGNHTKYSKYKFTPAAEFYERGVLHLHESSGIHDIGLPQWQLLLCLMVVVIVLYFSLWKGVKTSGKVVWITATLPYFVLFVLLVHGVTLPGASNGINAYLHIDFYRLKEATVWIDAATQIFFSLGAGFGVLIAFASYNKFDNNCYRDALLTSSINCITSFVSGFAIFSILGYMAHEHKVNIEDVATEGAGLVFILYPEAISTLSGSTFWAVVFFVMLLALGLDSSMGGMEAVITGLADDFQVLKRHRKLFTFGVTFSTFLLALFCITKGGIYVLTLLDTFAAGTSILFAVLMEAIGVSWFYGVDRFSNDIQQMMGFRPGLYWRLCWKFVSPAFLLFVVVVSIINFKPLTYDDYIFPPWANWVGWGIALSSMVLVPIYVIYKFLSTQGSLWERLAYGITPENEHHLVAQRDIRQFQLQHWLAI
row,Compound,inhibition at 1 µM [%]
1,"CN1CCN(CC(c2cccc(Cl)c2)C2(O)CCC3CCCCC3C2)CC1 (centres unmarked) [Example 332, 2-[1-(3-chlorophenyl)-2-(4-methypiperazin-1-yl)ethyl]decahydronaphthalen-2-ol dihydrochloride]",41
2,"CC1CCC(O)(C(CN2CCNCC2)c2cccc(Cl)c2)CC1 (centres unmarked) [Example 334, 1-[1-(3-chlorophenyl)-2-piperazin-1-ylethyl]-4-methylcyclohexanol dihydrochloride]",71.7
3,"CC1CCC(O)(C(CN2CCN(C)CC2)c2cccc(Cl)c2)CC1 (centres unmarked) [Example 335, 1-[1-(3-chlorophenyl)-2-(4-methylpiperazin-1-yl)ethyl]-4-methylcyclohexanol dihydrochloride]",49.5
4,"CCC1CCC(O)(C(CN2CCN(C)CC2)c2cccc(Cl)c2)CC1 (centres unmarked) [Example 336, 1-[1-(3-chlorophenyl)-2-(4-methylpiperazin-1-yl)ethyl]-4-ethylcyclohexanol dihydrochloride]",29

# Target: T1, human hNET
# Assay: as above
# Type: cell-based
# Details: at 30 μM test compound, [3H]NE uptake
row,Compound,inhibition at 30 µM [%]
1,"CC1(C)CC(C)(C)CC(O)(C(CN2CCNCC2)c2cccc(Br)c2)C1 (centres unmarked) [Example 87, 1-[1-(3-bromophenyl)-2-piperazin-1-ylethyl]-3,3,5,5-tetramethylcyclohexanol dihydrochloride]",47
2,"CCC(O)(CC)C(CN1CCN(C)CC1)c1cccc(Cl)c1 (centres unmarked) [Example 94, 2-(3-chlorophenyl)-3-ethyl-1-(4-methylpiperazin-1-yl)pentan-3-ol dihydrochloride]",71
3,"CC(C)(C)C1CCC(O)(C(CN2CCNCC2)c2cccc(Br)c2)CC1 (centres unmarked) [Example 96, 1-[1-(3-bromophenyl)-2-piperazin-1-ylethyl]-4-tert-butylcyclohexanol dihydrochloride]",100
4,"CN1CCN(CC(c2cccc(Cl)c2)C2(O)CCC(C(C)(C)C)CC2)CC1 (centres unmarked) [Example 101, 4-tert-butyl-1-[1-(3-chlorophenyl)-2-(4-methylpiperazin-1-yl)ethyl]cyclohexanol dihydrochloride]",100
5,"OC1(C(CN2CCNCC2)c2cccc(Br)c2)CCOCC1 (centres unmarked) [Example 103, 4-[1-(3-bromophenyl)-2-piperazin-1-ylethyl]tetrahydro-2H-pyran-4-ol dihydrochloride]",69
6,"OC1(C(CN2CCNCC2)c2cccc(Br)c2)C2CC3CC(C2)CC1C3 (centres unmarked) [Example 107, 2-[1-(3-bromophenyl)-2-piperazin-1-ylethyl]adamantan-2-ol dihydrochloride]",67
7,"COc1ccc(C(CN2CCNCC2)C2(O)CCOCC2)cc1Br (centres unmarked) [Example 110, 4-[1-(3-bromo-4-methoxyphenyl)-2-piperazin-1-ylethyl]tetrahydro-2H-pyran-4-ol dihydrochloride]",54
